Data set [1] relates to C2C12 cells. Nature of the data set: Viability recovery of muscle cells under H2O2 oxidative stress (CCK8). To be noted: H2O2 250 μM alone; compared to control group. The class given is cell-based, mouse. As for the experimental part:
Mouse myoblast cell line (i.e., C2C12 cells) was purchased from ATCC (Manassas, VA, USA) and cultured at conditions of 37° C. and 5% CO2 in DMEM medium containing 10% fetal bovine serum. Once the cultured cells reached 80% confluency, the medium was replaced with other DMEM medium (Gibco) containing 2% horse serum, 100 units/ml of penicillin, and 100 μg/ml of streptomycin to induce cell differentiation. The cells were cultured for 5 days after replacing the medium to induce cell differentiation. The culture medium was replaced with fresh medium every 2 days during the differentiation process. To induce muscular atrophy, the cells were treated with H2O2 at a final concentration of 250 μM. Concurrently, the cells were treated with Schizonepeta tenuifolia extract obtained from Example 1 at a concentration of 100 μg/ml. After treating the cells with Schizonepeta tenuifolia extract and culturing them for 24 hours, the medium was replaced with fresh medium containing 10% CCK8 (Dojindo) solution. After incubating for 2 hours, the absorbance was measured at 450 nm to evaluate cell viability. Each sample was measured three times, and the mean value was calculated.

Data set [2] has as its system BALB/c mice. Nature of the data set: Fatigue-related factors (LDH, AST, ALT) in blood serum. The class given is in vivo, mouse. To be noted: dexamethasone 25 mg/kg.
Method: The extract prepared as a dry powder was dissolved in physiological saline and used for the administration. After two weeks of oral administration of the test sample, the evaluation was made by Rotarod test and also in terms of a change in fatigue-related factors in the blood.
At the end of the 1-hour time point after the oral administration of each test material for 2 weeks, the Rotarod test was carried out, and blood samples were collected immediately from the animal heart. The collected blood was centrifuged at 3,000 rpm, 4° C. for 15 minutes to separate the blood serum, which was then stored at −70° C. until further analysis. Thereafter, concentrations of lactate dehydrogenase (LDH), aspartate aminotransferase (AST), and alanine aminotransferase (ALT) in the blood serum were measured by using a biochemical analyzer (AU480 chemistry analyzer, Beckman Coulter Inc., Brea, CA, USA).
Data set [3] deals with BALB/c mice. Put plainly: Rotarod test in dexamethasone-induced animal model of fatigue. Format: in vivo, mouse. Particulars: positive control 50 mg/kg, 2 weeks, 20 rpm. The protocol: A 6-week-old male BALB/c mice was purchased from Orient Bio Inc. (Seongnam, South Korea) and used them for the test. The test animals were acclimated for one week in a breeding environment with a temperature of 25±2° C., humidity of 50±5%, and a 12-hour light-dark cycle, while being provided with ad libitum access to a standard diet (AIN-76A diet) and water. After the acclimation period, the animals were used for the test. The animal test of the present invention was carried out after obtaining an approval of Korea Institute of Oriental Medicine Institutional Animal Care and Use Committee.
The acclimated mice were randomly assigned to different groups: the normal group (Normal), the group administered with dexamethasone group (25 mg/kg), the group administered with Schizonepeta tenuifolia extract (HG, 200 mg/kg), and the positive control group administered with oxymetholone (50 mg/kg). Each group consisted of 6 mice. […]
Mouse was orally administered for 2 weeks with each test material, and then placed on the rod of a Rotarod apparatus and rotated at a speed of 20 rpm. The time until the mouse fell off the rod was then measured. […] The mean value of the three measurements for each animal was taken as the test result value, and the mean and standard deviation were calculated for each group of the six animals.
(Falling from the rotarod earlier than controls is read as motor impairment.)

On to `OO` [H2O2], for which, in data set [1], the cell viability result is listed as “statistically significant decrease in cell viability”. `C[C@@H]1C[C@H]2[C@@H]3CCC4=CC(=O)C=C[C@]4(C)[C@@]3(F)[C@@H](O)C[C@]2(C)[C@@]1(O)C(=O)CO` [dexamethasone]: the “LDH level in blood serum” value in data set [2] is recorded as “elevated levels”. In data set [2] (compared to normal group), the “ALT level in blood serum” value was “statistically significant increase” and the “AST level in blood serum” value is “statistically significant increase”. For the molecule `C[C@]12C/C(=C/O)C(=O)C[C@@H]1CC[C@@H]1[C@@H]2CC[C@@]2(C)[C@H]1CC[C@]2(C)O` [oxymetholone], in data set [3], the “hanging time on the Rotarod” value is listed as “statistically significant increase in the time spent hanging on the Rotarod”.
